Experimental data published in patent EP1490080B1, “medical use of anthocyanins extracted from black rice” (Forbes Medi-Tech Inc., priority 2002, dated 2003).

Experiments:
[1] = tested on: supercoiled DNA; assay: Peroxyl radical (AAPH) induced supercoiled DNA scission, agarose gel electrophoresis; type: biochemical
Source text: The effects of the anthocyanin composition in preventing DNA oxidation induced by oxidative radicals such as the peroxyl radical and hydroxyl radicals (site specific and non-site specific) were investigated. […] A similar effect was seen by the addition of cyanidin-3-glucoside and peonidin-3-glucoside in combination at various ratios Figure 11).
(§1) Both peroxyl radical and hydroxyl radical were applied in this test to evaluate the effect of black rice extract of the present invention in preventing DNA scission by 0.7% agarose gel electrophoresis with 0.5µg/ml ethidium bromide using TAE buffer (40mM Tris-acetate, 2mM EDTA, pH8.5). DNA bands were visualized by ultraviolet bench top transilluminator (UVP Inc., Upland, CA) and densities of bands were analyzed by LabWork software (UVP Inc., Upland, CA). The inhibition of DNA nicking was calculated as following equation: %Inh = (Dnative -Dsample)/(Dnative -Doxidative) × 100 [formula]
(§2) Dnative, Doxidative. Dsample represented the density of DNA without AAPH, DNA with AAPH and DNA with AAPH and test sample, respectively.

[2] = tested on: LPS-activated mouse macrophage cell RAW264.7; assay: Inhibition of nitric oxide (nitrite, Griess reagent) in LPS-activated macrophage cells; type: cell-based; conditions: mean±SD, 1µg/ml LPS 24 hr
Protocol: Mouse macrophage cell RAW 264.7 (ATCC) was cultured in DMEM medium supplemented with 10% fetal bovine serum and antibiotics (100U/ml of penicillin and […]) at 37°C under 5% CO2, Cell was plated at a density of 2×10^5 cells/well into 96-well plates. After overnight growth when cells adhered to the bottom of well, various amount of the black rice extract in PBS and 1µg/ml bacterial lipopolysaccharide (LPS, Escheridchia coli, serotype 0111:B4) were added for another 24 hr. Medium was aliquot (100µl) to another 96-well plate where 100µl of Greiss reagent (1% sulfanilamide in 5% phosphoric acid and 0.1 % naphthylethylenediamine dihydrocholide in water, 1:1 v/v) was then added. Absorbance at 540nm was determined with ELISA plate reader. The concentration of nitrite was measured in according to standard curve obtained from the same procedure. The inhibition of nitric oxide was calculated according to the following equation: %Inhibition = (Abspositive -Abssample)/(Abspositive -Absnegative) × 100 [formula] of which, Abspositive, Absnegative, Abssample represent absorbance of cultural media with LPS, without LPS and sample with LPS.
Large amount of nitric oxide expression was made possible by using mouse macrophage cell line RAW264.7 co-incubated with bacterial LPS. The measurement of nitric oxide was indirectly measured by its metabolite nitrite in the supernatant of cell cultural media by Griess reagent.

[3] = tested on: supercoiled DNA; assay: DNA nicking induced by non-site specific hydroxyl radical, agarose gel electrophoresis; type: biochemical
Protocol: (§3) In this hydroxyl radical model, the hydroxyl radical was generated by ascorbic acid mediated Fenton reaction.
as §1, §2
(§4) In the present study, we adapted the concept of both non-site specific and site-specific hydroxyl radical and applied these to the DNA scission assays (Figures 10 and 11). It is evident that hydroxyl radical, no matter site-specific or non-site specific broke the integrity of supercoiled DNA strand (lane 2 of Figure 10).

[4] = tested on: supercoiled DNA; assay: DNA nicking induced by site-specific hydroxyl radical, agarose gel electrophoresis; type: biochemical
Protocol: as §3, §1, §2, §4

SMILES	protection on the DNA strand scission ([1]; 1µg/ml)	protection on the DNA strand scission ([1]; 5µg/ml)	inhibition at 1 µM ([2]; Mus musculus, RAW264.7, 1µM, read-out: Inhibition percentage of nitric oxide)	inhibition at 10 µM ([2]; Mus musculus, RAW264.7, 10µM, read-out: Inhibition percentage of nitric oxide)	inhibition at 100 µM ([2]; Mus musculus, RAW264.7, 100µM, read-out: Inhibition percentage of nitric oxide)	Inhibition percentage, Non-site specific ([3]; 0.17 µg/ml)	Inhibition percentage, Non-site specific ([3]; 1.7 µg/ml)	Inhibition percentage, Site specific ([4]; 0.17 µg/ml)	Inhibition percentage, Site specific ([4]; 1.7 µg/ml)	%Inh ([1]; 10µg/ml)	recovery of peroxyl radical damage to the supercoiled DNA strand ([1]; Figure 10)	Inhibition percentage of nitric oxide ([2]; 1µM)	Inhibition percentage of nitric oxide ([2]; 10µM)	Inhibition percentage of nitric oxide ([2]; 100µM)
OC[C@H]1O[C@@H](Oc2cc3c(O)cc(O)cc3[o+]c2-c2ccc(O)c(O)c2)[C@H](O)[C@@H](O)[C@@H]1O [Cyanidin-3-glucoside, cyanidin-3-O-glucoside]	11.5%	45.3%	12.7 ± 2.7%	23.1 ± 0.9%	72.9 ± 4.8%	–	–	–	–	–	–	–	–	–
Cc1c(C)c2c(c(C)c1O)CCC(C)(C(=O)O)O2 (stereo not shown) [Trolox]	–	–	–	–	–	44.0%	80.8%	25.7%	61.0%	100%	partial recovery	–	–	–
COc1cc(-c2[o+]c3cc(O)cc(O)c3cc2O[C@@H]2O[C@H](CO)[C@@H](O)[C@H](O)[C@H]2O)ccc1O [Peonidin-3-glucoside, peonidin-3-O-glucoside]	11.4%	44.1%	–	–	–	–	–	–	–	–	–	14.4±0.6%	22.3±3.7%	35.0±2.5%
